Source: patent US20200338028A1, “BENZENESULFONAMIDE DERIVATIVES AND METHOD FOR MODULATING LIPID RAFT” (Gongwin Biopharm Co., Ltd., priority 2017, published 2020)
“Also recorded” adds a separate entry of the source.

Key:
normal prostate cells = assay: SRB assay, anti-proliferative effect; format: cell-based, human; conditions: primary prostate cells, compared with CRPC cells, FIG. 1A
Description: Two castration-resistant prostate cancer (CRPC) cell lines of PC-3 and DU-145 were cultured in RPMI 1640 medium with 5% FBS (v/v), penicillin (100 units/ml) and streptomycin (100 μg/ml). Cultures were maintained in a 37° C. incubator with 5% CO2, and adherent cultures were passaged using 0.05% trypsin-EDTA when they reached about 80% confluence. Prostate cells were from human tissue samples which were obtained following informed consent of the donors and after full review by the Ethics Review Committee at National Taiwan University Hospital. The prostate specimens were from males by transurethral resection of the prostate. All patients with prostatism histories were diagnosed to have benign prostate hyperplasia by rectal digital examination, transrectal sonography of prostate and urodynamic studies. […] SRB assay is an accurate and reproducible assay based upon quantitative SRB staining of cellular proteins, and the process for SRB assay was performed as follows. […] The absorbance of SRB was measured at a wavelength of 515 nm at the time of p-TSA addition (hereinafter referred to as time zero, TZ), and after additional incubation of DMSO (hereinafter referred to as control growth, CTL) or p-TSA (hereinafter referred to as Tx). The percentage of cell growth inhibition was calculated by the formula of [1−(Tx−TZ)/(CTL−TZ)]×100%. […]

[1] = test system: PC-3-derived cancer xenografts; assay: in vivo anti-tumor xenograft model; set-up: species or system nude mice
Description: In vivo anti-tumor study was performed as follows. PC-3-derived cancer xenografts in nude mice were used as an in vivo model. The nude mice were subcutaneously injected with PC-3 cells (10^7 cell/mouse). The tumors were measured every day. When the tumors reached a volume of 100 mm^3, the mice were divided into two groups (n=8-10), and compound treatment was initiated. p-TSA was dissolved in 15% 1-methyl-2-pyrrolidone (NMP). Vehicle (15% NMP) or p-TSA was given intraperitoneally every other day. The length (1) and width (w) of the tumor were measured, and tumor volume was calculated as lw^2/2. The protocols of the in vivo study were approved by the Animal Care and Use Committee at National Taiwan University. All animal procedures and protocols were approved by AAALAC-accredited facility. Data were presented as mean±standard error of the mean (SEM) for the indicated number of separate experiments. The statistical analysis was performed using one way analysis of variance (ANOVA) for multiple sample sets. Single comparisons of appropriate groups were done with Student's t-test. P-values less than 0.05 are statistically considered significant.
The tumor xenograft in nude mice models after subcutaneously inoculated PC-3 cells was used to conduct in vivo efficacy evaluation of p-TSA. The operator was fully blinded to the experimental treatment. The initial intraperitoneal injection of 75 mg/kg p-TSA was given when the tumor reached a size of 100 mm^3 (p-TSA group 121±40 mm^3 v.s. control group 101±48 mm^3). First, the tumor growth inhibition treatment/control (T/C) ratio was used to quantify the treatment effect of p-TSA in the mouse xenograft model.

DU-145 cells = assay: lipid raft isolation (sucrose gradient) and Western blot of raft-associated kinases; format: cell-based, human; conditions: DU-145, 6 mM p-TSA, 2 h
Text: (§1) Lipid rafts are plasma membranes of cells containing glycosphingolipids and a number of receptors arranged in specific glycolipoprotein microdomains which serve as organizing centers to gather signaling molecules, membrane fluid and protein trafficking for a variety of cellular processes. […] To examine the effect of lipid raft on p-TSA action, lipid rafts were isolated from whole cells by sucrose gradient fractionation with subsequent analysis of several serine/threonine kinases localization in raft fractions by immunoblotting. The detailed method for lipid raft isolation was performed as follows. Lipid rafts were isolated using lysis conditions and centrifugation on discontinuous sucrose gradients. Briefly, after the treatment of cells with or without p-TSA, the cells were washed with ice-cold PBS and lysed for 30 min on ice with 1% Triton X-100 in TNEV buffer (10 mM Tris-HCl, pH 7.5, 150 mM NaCl, 5 mM EDTA, 1 mM Na3VO4 and 1 mM PMSF). Cells were homogenized with 15 strokes with a Biovision tissue homogenizer. After centrifuging at 200 g for 8 min, the nuclei and cellular debris were pelleted and 400 μl supernatant was mixed with 400 μl 85% (w/v) sucrose in TNEV buffer, and then transferred to the bottom of a Beckman 13×51 mm centrifuge tube. The diluted lysate was overlaid with 2.4 ml 35% (w/v) sucrose in TNEV buffer and finally 1.4 ml 5% (w/v) sucrose in TNEV buffer. The samples were centrifuged in an SW55 rotor at 200,000 g for 18 h at 4° C. in a Beckman Optima L100K ultracentrifuge (Beckman Instruments, Palo Alto, Calif., United States). Then, fractions in each volume of 350 μl were collected from the top gradient. 15 μl of each fraction was subjected to Western blot analysis to determine the location of target proteins in the discontinuous sucrose gradient.

PC-3 cells = assay: as above; format: cell-based, human; conditions: PC-3, 6 mM p-TSA, 2 h
Text: as §1

Which “anti-proliferative activity in normal prostate cells” value (normal prostate cells) does the source give for `Cc1ccc(S(N)(=O)=O)cc1` [p-TSA, para-toluenesulfonamide] here?
The value was “lower anti-proliferative activity”.

What about the median tumor size ([1]; 75 mg/kg intraperitoneally) of the same compound?
Its median tumor size is 403 mm^3.

And the “tumor growth inhibition treatment/control (T/C) ratio” value ([1]; 75 mg/kg intraperitoneally every other day, end of treatment, FIG. 7A)?
The value was 0.44.

And the tumor growth rate ([1]; 75 mg/kg intraperitoneally, FIG. 7B)?
Its tumor growth rate is 16.8 mm^3/day.

And the “loss of body weight versus control group” value ([1]; 75 mg/kg intraperitoneally, FIG. 7C)?
The value was “no significant between-group difference”.

What about the “inhibition by median tumor size” value ([1]; 75 mg/kg intraperitoneally, versus 765 mm^3 in the control group) of the same compound?
The value was 47%.

And the “inhibition of tumor growth rate” value ([1]; 75 mg/kg intraperitoneally, versus control group 37.8 mm^3/day)?
Its value is 56%.

What about the “day on which the group reached a 20% loss of body weight” value ([1]; 75 mg/kg intraperitoneally, control group 12th day) of the same compound?
Its value is 22 days.

And the “p-Akt expression in tumors” value ([1]; six randomly selected tumors, FIG. 7D, listed as PTS)?
Its value is “significant inhibitory effect; also recorded: significantly inhibited”.

What about the “expressions of raft-associated total and phosphorylated kinases (Akt, mTOR, p70S6K)” value (DU-145 cells) of the same compound?
The value was “decreased expressions”.

What about the “raft-associated phosphorylated p70S6K expression” value (DU-145 cells) of the same compound?
The value was “completely abolished”.

What about the “expressions of raft-associated total and phosphorylated kinases (Akt, mTOR, p70S6K)” value (PC-3 cells) of the same compound?
The value was “decreased expressions”.

What about the “raft-associated phosphorylated p70S6K expression” value (PC-3 cells) of the same compound?
Its value is “completely abolished”.
